# Data from US20060292243A1, “Arsenic compounds for the treatment of the arsenic-sensitive blast-cell related diseases” (priority 2005, published 2006).
# Like-named read-outs stand apart in the source and are kept apart here.
# How the values were obtained:
# NZB/NZW mice = test: Survival of SLE model mice; type: in vivo
# Protocol: In vivo studies on the activity of arsenic compound were carried out by using an experimental animal model of human Systemic Lupus Erythematosus. NZB/NZW denotes the mouse strain that spontaneously develops an autoimmune syndrome having notable similarities to human Systemic Lupus Erythematosus. Autoimmune disease in NZB/NZW mice is characterized by antinuclear antibodies (IgG) production about 4 months of age, and glomerulonephritis with proteinuria is developed when at 9 months of age, and that is the major cause of death (uremia).
# At 24 weeks of age, mice (3 groups) were treated 3 times per week with PBS (Group I as positive control), 2.5 mg/kg of As2O3 (Group II), or 5 mg/kg of As2O3 (Group III) administered intraperitoneally. The treatment was stopped at 28 weeks of age. Mice were observed daily for clinical signs of disease and for mortality and were bled every 4 weeks for determination of anti-DNA antibody production.
# Coincident with ameliorating the clinical signs of severe immune complex nephritis, a dramatic prolongation of survival was observed.
# [1] = test system: FCC1/NH strain of P. falciparum; test: Malaria inhibition test; type: cell-based
# Protocol: FCC1/NH strain (from Hainan, P.R.C.) of P. falciparum was used. The strain of the parasite was cultured by culture media mainly composed of RPMI-1640(GBCO), HEPES (GBCO), NaHCO3, and AB type serum. In a given experiment, Petri dish cultures were diluted with culture medium containing an amount of noninfected type B human erythrocytes to obtain a culture with a final parasitemia of about 1%. The resulting culture was ready for addition to microtitration plates with 96 flat-bottom wells.
# The final volume added to each of the 96-well microtitration plates was 200 μl, consisted of 20 μl of complete medium with or without the drug (arsenic trioxide) and 180 μl of the parasitized culture. The microtitration plates were incubated in 5% CO2 for an additional 48 hr, at 37 C. The suspensions were discarded and infection rate of RBC in each well was calculated by microscope examination after Giemsa staining. When drugs interfere, an inhibitory dose of 50% (IC50) and 90% (IC90) can be calculated. A series of experiments is shown below.
# The malaria inhibition experiment was performed in 4 lanes for each arsenic trioxide dose, and the initial infectious rate is 1.8%. After 48 hours of incubation, 5000 RBCs in each well were checked by microscope.
# Another malaria inhibition experiment was performed in 4 lanes for each arsenic trioxide dose, and the initial infectious rate is 1.5%. After 48 hours of incubation, 5000 RBCs in each well were checked by microscope.
# The other malaria inhibition experiment was performed in 12 lanes for each arsenic trioxide dose, and the initial infectious rate is 1.1%. After 48 hours of incubation, 5000 RBCs in each well were checked by microscope.
# The other malaria inhibition experiment was performed in 6 lanes for each arsenic trioxide dose, and the initial infectious rate is 1.1%. After 48 hours of incubation, 5000 RBCs in each well were checked by microscope.
# [2] = 0.031 uM, exp. 5.2.2, initial infectious rate 1.5%, 4 lanes, 48 hours
# [3] = 0.063 uM, exp. 5.2.2, initial infectious rate 1.5%, 4 lanes, 48 hours
# [4] = 0.125 uM, exp. 5.2.2, initial infectious rate 1.5%, 4 lanes, 48 hours
# [5] = 0.25 uM, exp. 5.2.1, initial infectious rate 1.8%, 4 lanes, 48 hours
# [6] = 0.25 uM, exp. 5.2.2, initial infectious rate 1.5%, 4 lanes, 48 hours
# [7] = 0.5 uM, exp. 5.2.1, initial infectious rate 1.8%, 4 lanes, 48 hours
# [8] = 0.5 uM, exp. 5.2.2, initial infectious rate 1.5%, 4 lanes, 48 hours
# [9] = 0.5 uM, exp. 5.2.3, initial infectious rate 1.1%, 12 lanes, 48 hours
# [10] = 0.5 uM, exp. 5.2.4, initial infectious rate 1.1%, 6 lanes, 48 hours
# [11] = 1.0 uM, exp. 5.2.1, initial infectious rate 1.8%, 4 lanes, 48 hours
# [12] = 1.0 uM, exp. 5.2.2, initial infectious rate 1.5%, 4 lanes, 48 hours
# [13] = 1.0 uM, exp. 5.2.3, initial infectious rate 1.1%, 12 lanes, 48 hours
# [14] = 1.0 uM, exp. 5.2.4, initial infectious rate 1.1%, 6 lanes, 48 hours
# [15] = 2.0 uM, exp. 5.2.1, initial infectious rate 1.8%, 4 lanes, 48 hours
# [16] = 2.0 uM, exp. 5.2.2, initial infectious rate 1.5%, 4 lanes, 48 hours
# [17] = 2.0 uM, exp. 5.2.3, initial infectious rate 1.1%, 12 lanes, 48 hours
# [18] = 2.0 uM, exp. 5.2.4, initial infectious rate 1.1%, 6 lanes, 48 hours
# [19] = 4.0 uM, exp. 5.2.1, initial infectious rate 1.8%, 4 lanes, 48 hours
# [20] = 4.0 uM, exp. 5.2.2, initial infectious rate 1.5%, 4 lanes, 48 hours
# [21] = 4.0 uM, exp. 5.2.3, initial infectious rate 1.1%, 12 lanes, 48 hours
# [22] = 4.0 uM, exp. 5.2.4, initial infectious rate 1.1%, 6 lanes, 48 hours
# [23] = 8.0 uM, exp. 5.2.1, initial infectious rate 1.8%, 4 lanes, 48 hours
# [24] = 8.0 uM, exp. 5.2.2, initial infectious rate 1.5%, 4 lanes, 48 hours
# [25] = 8.0 uM, exp. 5.2.3, initial infectious rate 1.1%, 12 lanes, 48 hours
# [26] = 8.0 uM, exp. 5.2.4, initial infectious rate 1.1%, 6 lanes, 48 hours
substance,measurement,setting,value
arsenic trioxide,survival rate (%),"NZB/NZW mice; 2.5 mg/kg, 0 weeks",100%
same,survival rate (%),"NZB/NZW mice; 2.5 mg/kg, 22 weeks",100%
same,survival rate (%),"NZB/NZW mice; 2.5 mg/kg, 31 weeks",100%
same,survival rate (%),"NZB/NZW mice; 2.5 mg/kg, 38 weeks",83.3%
same,survival rate (%),"NZB/NZW mice; 2.5 mg/kg, 39 weeks",66.7%
same,survival rate (%),"NZB/NZW mice; 2.5 mg/kg, 40 weeks",66.7%
same,survival rate (%),"NZB/NZW mice; 2.5 mg/kg, 41 weeks",66.7%
same,survival rate (%),"NZB/NZW mice; 2.5 mg/kg, 42 weeks",50%
same,survival rate (%),"NZB/NZW mice; 5 mg/kg, 0 weeks",100%
same,survival rate (%),"NZB/NZW mice; 5 mg/kg, 22 weeks",100%
same,survival rate (%),"NZB/NZW mice; 5 mg/kg, 31 weeks",66.7%
same,survival rate (%),"NZB/NZW mice; 5 mg/kg, 38 weeks",66.7%
same,survival rate (%),"NZB/NZW mice; 5 mg/kg, 39 weeks",66.7%
same,survival rate (%),"NZB/NZW mice; 5 mg/kg, 40 weeks",66.7%
same,survival rate (%),"NZB/NZW mice; 5 mg/kg, 41 weeks",66.7%
same,survival rate (%),"NZB/NZW mice; 5 mg/kg, 42 weeks",66.7%
same,treated mice still alive,NZB/NZW mice; after 43 weeks,50%
same,Probability unit (Y),"[1]; 0.031 uM, exp. 5.2.2",4.1619
same,Infection rate (%),[1]; [2],79.9%
same,Inhibition rate (%),[1]; [2],20.1%
same,Probability unit (Y),"[1]; 0.063 uM, exp. 5.2.2",4.3659
same,Infection rate (%),[1]; [3],73.7%
same,Inhibition rate (%),[1]; [3],26.3%
same,Probability unit (Y),"[1]; 0.125 uM, exp. 5.2.2",4.5239
same,Infection rate (%),[1]; [4],68.3%
same,Inhibition rate (%),[1]; [4],31.7%
same,Probability unit (Y),"[1]; 0.25 uM, exp. 5.2.1",5.1942
same,Infection rate (%),[1]; [5],42.3%
same,Inhibition rate (%),[1]; [5],57.7%
same,Probability unit (Y),"[1]; 0.25 uM, exp. 5.2.2",4.8743
same,Infection rate (%),[1]; [6],54.9%
same,Inhibition rate (%),[1]; [6],45.1%
same,Probability unit (Y),"[1]; 0.5 uM, exp. 5.2.1",5.6903
same,Infection rate (%),[1]; [7],24.5%
same,Inhibition rate (%),[1]; [7],75.5%
same,Probability unit (Y),"[1]; 0.5 uM, exp. 5.2.2",5.1408
same,Infection rate (%),[1]; [8],44.4%
same,Inhibition rate (%),[1]; [8],55.6%
same,Probability unit (Y),"[1]; 0.5 uM, exp. 5.2.3",5.6008
same,Infection rate (%),[1]; [9],27.4%
same,Inhibition rate (%),[1]; [9],72.6%
same,Probability unit (Y),"[1]; 0.5 uM, exp. 5.2.4",5.6903
same,Infection rate (%),[1]; [10],24.5%
same,Inhibition rate (%),[1]; [10],75.5%
same,Probability unit (Y),"[1]; 1.0 uM, exp. 5.2.1",5.8596
same,Infection rate (%),[1]; [11],19.5%
same,Inhibition rate (%),[1]; [11],80.5%
same,Probability unit (Y),"[1]; 1.0 uM, exp. 5.2.2",5.9192
same,Infection rate (%),[1]; [12],17.9%
same,Inhibition rate (%),[1]; [12],82.1%
same,Probability unit (Y),"[1]; 1.0 uM, exp. 5.2.3",5.1311
same,Infection rate (%),[1]; [13],12.9%
same,Inhibition rate (%),[1]; [13],87.1%
same,Probability unit (Y),"[1]; 1.0 uM, exp. 5.2.4",6.0027
same,Infection rate (%),[1]; [14],15.7%
same,Inhibition rate (%),[1]; [14],84.3%
same,Probability unit (Y),"[1]; 2.0 uM, exp. 5.2.1",6.0939
same,Infection rate (%),[1]; [15],13.7%
same,Inhibition rate (%),[1]; [15],86.3%
same,Probability unit (Y),"[1]; 2.0 uM, exp. 5.2.2",6.1311
same,Infection rate (%),[1]; [16],12.9%
same,Inhibition rate (%),[1]; [16],87.1%
same,Probability unit (Y),"[1]; 2.0 uM, exp. 5.2.3",6.3722
same,Infection rate (%),[1]; [17],8.5%
same,Inhibition rate (%),[1]; [17],91.5%
same,Probability unit (Y),"[1]; 2.0 uM, exp. 5.2.4",6.3408
same,Infection rate (%),[1]; [18],9.0%
same,Inhibition rate (%),[1]; [18],91.0%
same,Probability unit (Y),"[1]; 4.0 uM, exp. 5.2.1",6.3225
same,Infection rate (%),[1]; [19],9.3%
same,Inhibition rate (%),[1]; [19],90.7%
same,Probability unit (Y),"[1]; 4.0 uM, exp. 5.2.2",6.2160
same,Infection rate (%),[1]; [20],11.2%
same,Inhibition rate (%),[1]; [20],88.8%
same,Probability unit (Y),"[1]; 4.0 uM, exp. 5.2.3",6.7866
same,Infection rate (%),[1]; [21],3.6%
same,Inhibition rate (%),[1]; [21],96.3%
same,Probability unit (Y),"[1]; 4.0 uM, exp. 5.2.4",6.7507
same,Infection rate (%),[1]; [22],4.0%
same,Inhibition rate (%),[1]; [22],96.0%
same,Probability unit (Y),"[1]; 8.0 uM, exp. 5.2.1",6.4909
same,Infection rate (%),[1]; [23],6.8%
same,Inhibition rate (%),[1]; [23],93.2%
same,Probability unit (Y),"[1]; 8.0 uM, exp. 5.2.2",6.6352
same,Infection rate (%),[1]; [24],5.1%
same,Inhibition rate (%),[1]; [24],94.9%
same,Probability unit (Y),"[1]; 8.0 uM, exp. 5.2.3",7.0537
same,Infection rate (%),[1]; [25],2.0%
same,Inhibition rate (%),[1]; [25],98.0%
same,Probability unit (Y),"[1]; 8.0 uM, exp. 5.2.4",7.0749
same,Infection rate (%),[1]; [26],1.9%
same,Inhibition rate (%),[1]; [26],98.1%
same,IC50,"[1]; exp. 5.2.1, initial infectious rate 1.8%, 48 hours, read-out: IC50",100 nM
same,IC90,"[1]; exp. 5.2.1, initial infectious rate 1.8%, 48 hours, read-out: IC90",3680 nM
same,IC50,"[1]; exp. 5.2.1, 95% confidence limit 11.43˜34.2 ng/ml",0.01978 µg/mL
same,IC90,"[1]; exp. 5.2.1, 95% confidence limit 420.84˜1259.53 ng/ml",0.72805 µg/mL
same,IC50,"[1]; exp. 5.2.2, initial infectious rate 1.5%, 48 hours, read-out: IC50",250 nM
same,IC90,"[1]; exp. 5.2.2, initial infectious rate 1.5%, 48 hours, read-out: IC90",3730 nM
same,IC50,"[1]; exp. 5.2.2, 95% confidence limit 28.00˜86.73 ng/ml",0.04928 µg/mL
same,IC90,"[1]; exp. 5.2.2, 95% confidence limit 419.28˜1298.77 ng/ml",0.73794 µg/mL
same,IC50,"[1]; exp. 5.2.3, initial infectious rate 1.1%, 12 lanes, 48 hours, read-out: IC50",130 nM
same,IC90,"[1]; exp. 5.2.3, initial infectious rate 1.1%, 12 lanes, 48 hours, read-out: IC90",960 nM
same,IC50,"[1]; exp. 5.2.3, 95% confidence limit 18.91˜34.9 ng/ml",0.02572 µg/mL
same,IC90,"[1]; exp. 5.2.3, 95% confidence limit 139.65˜258.3 ng/ml",0.18993 µg/mL
same,IC90,"[1]; exp. 5.2.4, initial infectious rate 1.1%, 6 lanes, 48 hours, read-out: IC90",2090 nM
same,IC50,"[1]; exp. 5.2.4, 95% confidence limit 40.32˜99.4 ng/ml",0.06331 µg/mL
same,IC90,"[1]; exp. 5.2.4, 95% confidence limit printed 263.06˜258.30 ng/ml",0.41348 µg/mL
